These results are taken from ChEMBL document CHEMBL5137080, “Discovery of Novel 7-Hydroxy-5-oxo-4,5-dihydrothieno[3,2-b]pyridine-6-carboxamide Derivatives with Potent and Selective Antifungal Activity against Cryptococcus Species” (J Med Chem, 2022).

Series [1] concerns Candida albicans. The experiment in a line: Antifungal activity against Candida albicans SC5314 assessed as fungal growth inhibition incubated for 48 hrs in presence of P163-0892 by broth microdilution method. It is filed as functional.
Series [2] concerns Cryptococcus neoformans. Kind of series: Antifungal activity against Cryptococcus neoformans clinical isolate BJ3 assessed as fungal growth inhibition incubated for 72 hrs in presence of P163-0892 by broth microdilution method. It is filed as functional. For orientation: Broth dilution looks for growth in wells or tubes with falling amounts of substance.
Series [3] has as its system Cryptococcus neoformans. The experiment in a line: Synergistic antifungal activity against Cryptococcus neoformans H99 assessed as fractional inhibitory concentration index incubated for 72 hrs in presence of P163-0892 by broth microdilution method. The series is classed as functional.
Series [4] has as its system Cryptococcus deuterogattii. The experiment in a line: Synergistic antifungal activity against Cryptococcus gattii WM178 assessed as fractional inhibitory concentration index incubated for 72 hrs in presence of P163-0892 by broth microdilution method. The series is classed as functional, Cryptococcus gattii species complex.
The test system of series [5] is Cryptococcus gattii. The experiment in a line: Synergistic antifungal activity against Cryptococcus gattii WM179 assessed as fractional inhibitory concentration index incubated for 72 hrs in presence of P163-0892 by broth microdilution method. The series is classed as functional, Cryptococcus gattii species complex.
The next series relates to Nakaseomyces glabratus. The experiment in a line: Synergistic antifungal activity against Candida glabrata ATCC1182 assessed as fractional inhibitory concentration index incubated for 48 hrs in presence of P163-0892 by broth microdilution method. The series is classed as functional.
The subject of another series is Pichia kudriavzevii. Kind of series: Synergistic antifungal activity against Candida krusei ATCC2340 assessed as fractional inhibitory concentration index incubated for 48 hrs in presence of P163-0892 by broth microdilution method. The series is classed as functional.
Series [6] concerns Cryptococcus neoformans. Kind of series: Synergistic antifungal activity against Cryptococcus neoformans clinical isolate 56992 assessed as fractional inhibitory concentration index incubated for 72 hrs in presence of P163-0892 by broth microdilution method. The series is classed as functional.
Series [7] relates to Cryptococcus neoformans. Kind of series: Synergistic antifungal activity against Cryptococcus neoformans clinical isolate HN1 assessed as fractional inhibitory concentration index incubated for 72 hrs in presence of P163-0892 by broth microdilution method. The series is classed as functional.
Series [8] deals with Cryptococcus neoformans. The experiment in a line: Synergistic antifungal activity against Cryptococcus neoformans clinical isolate HN15 assessed as fractional inhibitory concentration index incubated for 72 hrs in presence of P163-0892 by broth microdilution method. It is filed as functional.
Series [9] deals with Cryptococcus neoformans. Kind of series: Synergistic antifungal activity against Cryptococcus neoformans clinical isolate HN20 assessed as fractional inhibitory concentration index incubated for 72 hrs in presence of P163-0892 by broth microdilution method. It is filed as functional.
Series [10] deals with Cryptococcus neoformans. The experiment in a line: Synergistic antifungal activity against Cryptococcus neoformans clinical isolate SH68 assessed as fractional inhibitory concentration index incubated for 72 hrs in presence of P163-0892 by broth microdilution method. It is filed as functional.
Series [11] concerns Cryptococcus gattii species complex. Kind of series: Synergistic antifungal activity against Cryptococcus gattii clinical isolate SCZ20024 assessed as fractional inhibitory concentration index incubated for 72 hrs in presence of P163-0892 by broth microdilution method. The series is classed as functional.
Series [12] shares this test system. Kind of series: Synergistic antifungal activity against Cryptococcus gattii clinical isolate SCZ20031 assessed as fractional inhibitory concentration index incubated for 72 hrs in presence of P163-0892 by broth microdilution method. The series is classed as functional.
Series [13] concerns Cryptococcus neoformans. Kind of series: Antifungal activity against Cryptococcus neoformans H99 infected in Wax moth larvae assessed as reduction on fungal burden at 10 mg/kg measured after 9 days in presence of P163-0892 by 10 fold serial dilution method. The settings on record: time 9 day. It is filed as functional.
Series [14] deals with Cryptococcus neoformans. Kind of series: Antifungal activity against Cryptococcus neoformans H99 infected in Wax moth larvae assessed as survival rate at 10 mg/kg measured after 9 days in presence of P163-0892 by Kaplan-Meier method. The series is classed as functional. The settings on record: H99, 216 h, time 9 day.
Series [15] deals with Cryptococcus gattii species complex. The experiment in a line: Antifungal activity against Cryptococcus gattii E566 assessed as fungal growth inhibition incubated for 72 hrs in presence of Fluconazole by broth microdilution method. It is filed as functional.
The subject of series [16] is Candida albicans. The experiment in a line: Antifungal activity against Candida albicans SC5314 assessed as fungal growth inhibition incubated for 48 hrs in presence of Fluconazole by broth microdilution method. The series is classed as functional.
Series [17] relates to [Candida] auris. Kind of series: Antifungal activity against Candida auris CBS 12372 assessed as fungal growth inhibition incubated for 48 hrs in presence of Fluconazole by broth microdilution method. The settings on record: Candidozyma auris. The series is classed as functional.
The test system of the next series is Candida tropicalis. Kind of series: Antifungal activity against Candida tropicalis ATCC20026 assessed as fungal growth inhibition incubated for 48 hrs in presence of Fluconazole by broth microdilution method. The series is classed as functional.
Series [18] relates to Cryptococcus neoformans. The experiment in a line: Antifungal activity against Cryptococcus neoformans clinical isolate 56992 assessed as fungal growth inhibition incubated for 72 hrs in presence of Fluconazole by broth microdilution method. It is filed as functional.
Series [19] concerns Cryptococcus neoformans. Kind of series: Antifungal activity against Cryptococcus neoformans clinical isolate HN2 assessed as fungal growth inhibition incubated for 72 hrs in presence of Fluconazole by broth microdilution method. It is filed as functional.
In series [20] the test system is Cryptococcus gattii species complex. Kind of series: Antifungal activity against Cryptococcus gattii clinical isolate SCZ20031 assessed as fungal growth inhibition incubated for 72 hrs in presence of Fluconazole by broth microdilution method. It is filed as functional.
For series [21], the system named is Cryptococcus neoformans. The experiment in a line: Synergistic antifungal activity against Cryptococcus neoformans H99 assessed as fractional inhibitory concentration index incubated for 72 hrs in presence of Fluconazole by broth microdilution method. The series is classed as functional.
Series [22] deals with Cryptococcus gattii species complex. The experiment in a line: Synergistic antifungal activity against Cryptococcus gattii E566 assessed as fractional inhibitory concentration index incubated for 72 hrs in presence of Fluconazole by broth microdilution method. It is filed as functional.
Series [23] has as its system Cryptococcus gattii. Kind of series: Synergistic antifungal activity against Cryptococcus gattii WM179 assessed as fractional inhibitory concentration index incubated for 72 hrs in presence of Fluconazole by broth microdilution method. It is filed as functional, Cryptococcus gattii species complex.
In series [24] the test system is [Candida] auris. The experiment in a line: Synergistic antifungal activity against Candida auris CBS 12372 assessed as fractional inhibitory concentration index incubated for 48 hrs in presence of Fluconazole by broth microdilution method. It is filed as functional, Candidozyma auris.
In series [25] the test system is Cryptococcus neoformans. Kind of series: Synergistic antifungal activity against Cryptococcus neoformans clinical isolate HN1 assessed as fractional inhibitory concentration index incubated for 72 hrs in presence of Fluconazole by broth microdilution method. It is filed as functional.
The test system of series [26] is Cryptococcus neoformans. Kind of series: Synergistic antifungal activity against Cryptococcus neoformans clinical isolate HN2-40 assessed as fractional inhibitory concentration index incubated for 72 hrs in presence of Fluconazole by broth microdilution method. The series is classed as functional.
In series [27] the test system is Cryptococcus gattii species complex. Kind of series: Synergistic antifungal activity against Cryptococcus gattii clinical isolate SCZ20024 assessed as fractional inhibitory concentration index incubated for 72 hrs in presence of Fluconazole by broth microdilution method. It is filed as functional.
Series [28] relates to Cryptococcus deuterogattii. The experiment in a line: Antifungal activity against Cryptococcus gattii WM178 assessed as reduction on fungal growth at 8 ug/ml incubated for 48 hrs by plate reader assay. The settings on record: Cryptococcus gattii species complex, dose 8.0 µg/ml. It is filed as functional, organism-based.
Series [29] relates to Cryptococcus neoformans. Kind of series: Antifungal activity against Cryptococcus neoformans H99 infected in Wax moth larvae assessed as survival rate at 10 mg/kg measured after 9 days in presence of Fluconazole by Kaplan-Meier method. The series is classed as functional. The settings on record: H99, 216 h, time 9 day.
The test system of series [30] is Cryptococcus deuterogattii. The experiment in a line: Antifungal activity against Cryptococcus gattii WM178 infected in Wax moth larvae assessed as survival rate at 10 mg/kg measured after 9 days in presence of Fluconazole by Kaplan-Meier method. The series is classed as functional, Cryptococcus gattii species complex. As to conditions: WM178, 216 h, time 9 day.

Series [31] can be described thus: Cmax in Sprague-Dawley rat at 5 mg/kg,po by LC-MS/MS analysis. It is filed as ADME, organism-based. On the set-up: dose 5 mg/kg, route po. As to conditions: in vivo.
Series [32] can be described thus: Oral bioavailability in Sprague-Dawley rat at 5 mg/kg by LC-MS/MS analysis. The series is classed as ADME, organism-based. The settings on record: in vivo.
The nature of series [33]: Cytotoxicity against human Caco-2 cells assessed as cell growth inhibition incubated for 24 hrs by CCK-8 assay. The series is classed as toxicity, cell-based. On the technique in general: Tetrazolium dyes change colour on reduction, which living cells bring about.
Series [34] can be described thus: Cytotoxicity against rabbit RBC assessed as cell growth inhibition incubated for 24 hrs by CCK-8 assay. The series is classed as toxicity, cell-based, Oryctolagus cuniculus, Erythrocyte. The settings on record: red blood cells.
Series [35] can be described thus: Selectivity index, ratio of IC50 for human Caco-2 to MIC for antifungal activity against Cryptococcus neoformans. It is filed as toxicity. As to conditions: Caco-2 cells, read-out: Selectivity Index.

Active and inactive are the calls of the source. The calls are words filed in the database; no cut-off is given here.

Take `OC(Cn1cncn1)(Cn1cncn1)c1ccc(F)cc1F` [FLUCONAZOLE]: the MIC was determined as 1 µg/mL in the series with Candida albicans [1] and 0.25 µg/mL with Cryptococcus neoformans [2]. The “fractional inhibitory concentration index (FICI)” value is on record as 0.375 in the series with Cryptococcus neoformans [3]; 0.25 in [4]; 0.25 with Cryptococcus gattii [5]; 0.625 in the series with Nakaseomyces glabratus; 0.563 in the series with Pichia kudriavzevii; 0.25 in the series on Cryptococcus neoformans [6]. The “fractional inhibitory concentration index (FICI)” value in the series on Cryptococcus neoformans [7] came out at 0.125; in the series with Cryptococcus neoformans [8] it was 0.313; with Cryptococcus neoformans [9], 0.375; with Cryptococcus neoformans [10] it was 0.25; in series [11], 0.313; in series [12], 0.25. For the same molecule, the Activity in the series with Cryptococcus neoformans [13] turned out to be 4.8 log10CFU/g. Also, in the series on Cryptococcus neoformans [14], the survival at 10 mg/kg came out at 65%.

Turning to `CCCCNC(=O)c1c(O)c2sccc2n(Cc2ccccc2)c1=O`, the MIC was 0.0313 µg/mL in [15]; 1 µg/mL in the series on Candida albicans [16]; 1 µg/mL in [Candida] auris [17]; 2 µg/mL with Candida tropicalis; 0.125 µg/mL with Cryptococcus neoformans [18]; 0.0313 µg/mL in the series on Cryptococcus neoformans [19]. Further, the MIC in series [20] was found to be 0.125 µg/mL. In addition, the “fractional inhibitory concentration index (FICI)” value was 0.375 in the series with Cryptococcus neoformans [21]; 0.188 in series [22]; 0.25 in the series with Cryptococcus gattii [23]; 1.008 in [Candida] auris [24]; 0.125 in the series on Cryptococcus neoformans [25]; 0.188 in the series on Cryptococcus neoformans [26]. Moreover, the “fractional inhibitory concentration index (FICI)” value in series [27] was determined as 0.313. The result in series [28] was Active. In addition, the figures for the survival at 10 mg/kg (in the series with Cryptococcus neoformans [29]; in series [30]) were 65% and 70%, respectively. The same molecule showed a Cmax in [31] of 2.97 ng/mL. Further, the bioavailability in series [32] turned out to be 0.8%. The IC50 at 24 h in [33] and in [34] was more than 256 µg/mL throughout. Besides, in series [35], the selectivity ratio was more than 256.

Broadly, the MIC is the lowest concentration found to suppress growth. By Cmax is commonly meant the maximum level reached in the sampled fluid or tissue. What is called bioavailability is the share of a dose that reaches the circulation, judged against a reference dose that is usually intravenous. Read a low bioavailability as poor availability. A word on the IC50: it is the point on the concentration scale where inhibition reaches its midpoint.
